Drawing on patent US20210024483A1, “HETEROCYLCOALKENYL DERIVATIVES USEFUL AS AGONISTS OF THE GPR120 AND / OR GPR40” (Janssen Pharmaceutica NV, priority 2018, published 2021), this text covers EC50 for 9 compounds.

The target of assay [1] is T1, Human GPR120 short form (short splice variant, NM_001195755.1) (Homo sapiens, UniProt Q5NUL3).
T1 construct: expressed in transfected cells; host or cells: HEK293
T1 sequence (Q5NUL3 1-361): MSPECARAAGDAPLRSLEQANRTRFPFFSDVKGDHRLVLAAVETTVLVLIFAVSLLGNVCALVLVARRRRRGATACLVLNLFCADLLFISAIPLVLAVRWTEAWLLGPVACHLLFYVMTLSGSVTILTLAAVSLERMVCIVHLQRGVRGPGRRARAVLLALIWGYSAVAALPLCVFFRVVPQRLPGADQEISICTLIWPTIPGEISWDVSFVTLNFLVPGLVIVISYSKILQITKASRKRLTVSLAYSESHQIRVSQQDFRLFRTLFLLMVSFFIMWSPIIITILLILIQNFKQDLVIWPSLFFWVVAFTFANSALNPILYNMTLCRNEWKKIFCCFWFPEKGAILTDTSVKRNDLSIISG
In words: Human GPR120 Calcium Flux Assay. In kind it is cell-based. As to conditions: HEK-293 cells, 4200 cells/well, read-out: Human GPR120 Calcium Flux Assay Procedure B EC50. An excerpt: In Vitro Assay: Human GPR120 in Calcium Flux Assay
This in vitro assay serves to assess test compound agonist activity against the short splice variant (SVS with Accession number NM_001195755.1 confirmed by sequencing data) of the GPR120 receptor. The Human Short splice variant #2 (NM_001195755.1) is missing an in-frame coding exon compared to variant 1 (the Human Long splice variant NM_181745.3), resulting in a shorter isoform (GPR120-S) lacking a 16 aa protein segment compared to isoform GPR120-L. The assay platform utilizes HEK-293 cells stably transfected to express the Human GPR120 short form. These cells are first loaded with the Ca^+2 sensitive dye, Fluo-4 NW. Upon stimulation, intracellular released Ca^+2 can bind to the dye and alter its fluorescence intensity. This increase in fluorescence signal, and thus the flux in intracellular [Ca^2+], is detected and quantitated by fluorescence imaging using a FLIPR reader. The effect of the agonist is measured as a function of concentration and used to calculate an EC50 based upon a response curve. […]
In this procedure 4200 cells/well were employed.
A Human GPR120 clone (Genbank accession number NM_001195755.1) was placed into the pcDNA3.1 mammalian expression vector carrying the neomycin resistance gene. A stable mammalian cell was generated by placing the above clone into a HEK293 background. Clonal cells responding to long chain fatty acids had expression levels of GPR120 confirmed by RT-qPCR. Human HEK-GPR120 cells were cultured in Dulbecco's Modified Eagle's Medium (DMEM)/F12 medium supplemented with 10% fetal bovine serum (FBS), 1% L-Glutamine and 1% penicillin/streptomycin and 0.5 mg/ml G-418. Cells were split 2 times a week to keep the cells in the log-phase growth.
In preparation for the assay, HEK cells stably transfected with Human GPR120 (2.5K cells per well in 25 uL growth medium) were seeded into 384-well plates and then incubated overnight (37° C., 5% CO2). The next day, the media was changed to 20 μL assay buffer and the cell starved for 1 h at 37° C. The dye loading solution (2× dye) was prepared using 10 mL assay buffer, 100 μL of 250 mM probenecid, 1 bottle of Component A, and 20 μl of dye in DMSO. Twenty μL of the 2× dye loading buffer was then added to each well. The plates were incubated at 37° C. for 30 min, then at room temperature for an additional 15 minutes, before performing the assay on FLIPR.
The assay was performed on a FLIPR plate reader using the following parameters. Baseline was read for 10 seconds at 1 sec intervals. The program was set to transfer 10 μL of ligand from compound plate to cell plate after baseline reading. Aspiration was executed at: 10 μL/sec speed, 4.6 μL height; Dispensing was executed at: 30 μL/sec speed, 45 μL height. After compound addition, each well was read for 300 sec, with measurements collected at 1 sec intervals.
The kinetic data from the FLIPR was based upon a 5 minute window for data collection. The fluorescence of each sample well was used for individual calculations of a normalized RFU value, which was defined as maximum response minus the minimum response. The normalized fluorescence reading (RFU) was calculated as follows:
The data were fitted to a sigmoidal dose-response curve with a variable Hill slope (<2) using nonlinear regression with GraphPad Prism 5.0 to calculate the EC50 values. The Fitting Equation was: Y=Bottom+(Top−Bottom)/(1+10^((Log EC50−X)*HillSlope)), where X is the log of the concentration and Y is the response.

The target of assay [2] is T2, short form of the GPR120 receptor (Homo sapiens, UniProt Q5NUL3).
T2 construct: host or cells: PathHunter CHO-K1 GPR120S beta-Arrestin Cell Line
T2 sequence (Q5NUL3 1-361): T1 sequence (Q5NUL3 1-361)
Kind of assay: Human GPR120 DiscoveRx PathHunter Beta-Arrestin Assay, Procedure B. In kind it is cell-based. The following applies: PathHunter CHO-K1 GPR120S cells, 5000 cells/well. An excerpt: Human GPR120 DiscoveRx PathHunter® Beta-Arrestin Assay
The binding of an agonist (medium/long chain fatty acids or small molecule agonists) to the G-protein-coupled receptor GPR120 activates phospholipase C, leading to release of intracellular Ca^+2 through the generation of inositol 1,4,5-trisphosphate (InsP3 or IP3). GPR120 activation can also trigger intracellular signaling via recruitment of Beta-Arrestin. In the present method, agonist-induced activation of the human GPR120 receptor is monitored through the use of PathHunter® CHO-K1 GPR120 Beta-Arrestin Cell Line engineered by DiscoveRx, as detailed below. The cell lines were designed to co-express both the ProLink/Enzyme Donor (PK)-tagged GPCR and the Enzyme […] (EA)-tagged Beta-Arrestin fusion proteins. Upon GPR120 receptor stimulation/activation, the EA-tagged Beta-Arrestin portion is translocated to the tagged receptor, where the two enzyme fragments are brought within close proximity. Under these conditions, these fragments can interact and form an active Beta-gal enzyme complex through Enzyme Fragment Complementation (EFC). This active Beta-gal complex can enzymatically hydrolyse the substrate to produce a detectable light signal; therefore, activation as a function of agonist concentration can be expressed as an EC50 value to determine relative compound activities. This in vitro assay therefore serves to assess compound agonist activity of the GPR120.
In Procedure β-arrestin B the cells used were PathHunter® CHO-K1 GPR120S β-Arrestin Cell Line, expressing the short form of the GPR120 receptor (Accession #[…]), with 5000 cells/well.
The selected CHO-K1 GPR120 β-Arrestin cells were cultured in Ham's F12 media supplemented with 10% fetal bovine serum (FBS), 1% Glutamine, 1× p/s, 800 μg/mL G418 and 300 μg/mL Hygromycin B (for selection). Cell stocks were maintained and grown in a sub-confluent state using standard cell culture procedures. The day before the experiment, the cells were harvested with non-enzymatic cell dissociation buffer and re-suspended in complete growth media at the desired concentration. A Corning 384-plate was then seeded with the proper number of cells in a volume of 25 μL, per well. The seeded plates were incubated overnight at 37° C.
On the day of the experiment, the Assay Buffer containing (a) HBSS with Ca^++ and Mg^++, (b) 20 mM HEPES, and (c) 0.1% BSA stabilizer (pH 7.4) was prepared. The growth medium was gently removed from the cell plates and 20 μL of Assay Buffer added to each well. The plate was then incubated at 37° C. for 60 min. Test compounds were serially diluted in Assay Buffer to desired concentrations (more particularly to one or more of the following μM concentrations: 25, 12.5, 6.25, 3.12, 1.56, 0.78, 0.39, 0.19, 0.10, 0.05, 0.02, 0.01). Five μL of compound dilution was then added to each well and the plate incubated at 37° C. for 90 min. The detection reagents were prepared according to the manufacture's instruction. Twelve μL of the detection reagents were added to each well and the plate incubated at room temperature for 60 min.
The plates were read on an EnVision instrument, using Protocol name: Luminescence, Plate type: 384 Costar, Measurement height: 3 mm, Measurement time: 1 s, Aperture: 384 Plate aperture. The % Activity relative to the positive control was calculated using the following equation:
The % Activity values were plotted versus the concentration of test compound and fitted to a sigmoidal dose-response curve with a Hill slope=1 (fixed value) using nonlinear regression with GraphPad Prism 5.0 to calculate the EC50 values. The Fitting Equation was: Y=Bottom+(Top−Bottom)/(1+10^((Log EC50−X)*HillSlope)), where X is the log of the concentration and Y is the response.

`O=C(O)CCc1cc(F)c(OCC2=C(c3ccc(Cl)cc3)CCOC2)c(F)c1` [compound 642]: the EC50 in assay [1] was 0.176 µM; in assay [2], 0.623 µM.

For the compound `O=C(O)CCc1ccc(OCC2=C(c3ccc(Cl)cc3)CCOC2)cc1C(F)(F)F` [compound 646], the results for the EC50 in assay [1] and in assay [2] were 0.628 µM and 3.65 µM, respectively.

Turning to `Cc1cc(CCC(=O)O)ccc1OCC1=C(c2ccc(F)cc2)CSC1` [compound 625], the results for the EC50 in assay [1] and in assay [2] were 0.124 µM and 0.11 µM, respectively.

Regarding `Cc1c(CCC(=O)O)ccc(OCC2=C(c3ccc(F)cc3)CCOC2)c1C` [compound 650], the results for the EC50 in assay [1] and in assay [2] were 0.316 µM and 0.658 µM, respectively.

Take `COc1ccc(C2=C(COc3ccc(CCC(=O)O)c(C)c3C)COCC2)cc1` [compound 647]: the EC50 in assay [1] is above 5 µM; in assay [2], 0.74 µM.

As for `Cc1c(CCC(=O)O)ccc(OCC2=C(c3ccc(Cl)cc3)CCOC2)c1C` [compound 641], the EC50 amounted to 0.172 µM in assay [1] and 0.204 µM in assay [2].

For the compound `Cc1cc(CCC(=O)O)ccc1OCC1=C(c2ccc(Cl)cc2)CCOC1` [compound 645], the figures for the EC50 in assay [1] and in assay [2] were 0.269 µM and 0.275 µM, respectively.

For `Cc1cc(CCC(=O)O)ccc1OCC1=C(c2ccc(Cl)cc2)COCC1` [compound 753], the values for the EC50 in assay [1] and in assay [2] were 0.178 µM and 0.296 µM, respectively.

With `Cc1c(CCC(=O)O)ccc(OCC2=C(c3ccc(F)c(F)c3)CCOC2)c1C` [compound 658], the EC50 in assay [1] was determined as 0.142 µM; in assay [2], 0.169 µM.
